This is an account of results in ChEMBL document CHEMBL1152141, “Pyrrolo-pyrimidones: a novel class of MK2 inhibitors with potent cellular activity” (Bioorg Med Chem Lett, 2008).

One data set deals with PBMC. As to the kind of experiment: Inhibition of LPS-stimulated TNFalpha release from human PBMC after 3 hrs.
In data set [1] the target is Tyrosine-protein kinase JAK2 (Homo sapiens, UniProt O60674). Nature of the data set: Inhibition of JAK2.
For data set [2], the target named is Tyrosine-protein kinase BTK (Homo sapiens, UniProt Q06187). As to the kind of experiment: Inhibition of Btk.
Data set [3] deals with RAC-alpha serine/threonine-protein kinase (Homo sapiens, UniProt P31749). Nature of the data set: Inhibition of PKB.
The target in data set [4] is Epidermal growth factor receptor (Homo sapiens, UniProt P00533).
Data set [5] has as its target Hepatocyte growth factor receptor (Homo sapiens, UniProt P08581). As to the kind of experiment: Inhibition of c-Met.
For data set [6], the target named is Vascular endothelial growth factor receptor 2 (Homo sapiens, UniProt P35968). Nature of the data set: Inhibition of KDR.
For data set [7], the target named is Fibroblast growth factor receptor 4 (Homo sapiens, UniProt P22455). As to the kind of experiment: Inhibition of FGFR4.
Data set [8] concerns the target Mitogen-activated protein kinase 9 (Homo sapiens, UniProt P45984). As to the kind of experiment: Inhibition of JNK2.
Data set [9] deals with Glycogen synthase kinase-3 beta (Homo sapiens, UniProt P49841). As to the kind of experiment: Inhibition of GSK3b.
In data set [10] the target is Mitogen-activated protein kinase 8 (Homo sapiens, UniProt P45983). Nature of the data set: Inhibition of JNK1.
Data set [11] is described as follows: Inhibition of PKA.
A further data set addresses Ephrin type-B receptor 4 (Homo sapiens, UniProt P54760). Nature of the data set: Inhibition of EphB4.
Data set [12] addresses Cyclin-dependent kinase 2 (Homo sapiens, UniProt P24941). As to the kind of experiment: Inhibition of CDK2.
Data set [13] addresses Mast/stem cell growth factor receptor Kit (Homo sapiens, UniProt P10721). Nature of the data set: Inhibition of c-Kit.
The target in data set [14] is Tyrosine-protein kinase JAK3 (Homo sapiens, UniProt P52333). As to the kind of experiment: Inhibition of JAK3.
For another data set, the target named is Ephrin type-A receptor 4 (Homo sapiens, UniProt P54764). Nature of the data set: Inhibition of EphA4.
Data set [15] is described as follows: Thermodynamic solubility at pH 6.8. Type of data set: physicochemical. The note with it: buffer.
Data set [16] concerns the target ALK tyrosine kinase receptor (Homo sapiens, UniProt Q9UM73). Nature of the data set: Inhibition of Alk.
Data set [17] deals with Heat shock protein beta-1 (Homo sapiens) (UniProt P04792). Nature of the data set: Inhibition of LPS-stimulated hsp27 phosphorylation in 1 hr pretreated human THP1 cells by Western blot. Type of data set: cell-based. The note with it: THP-1. On the technique in general: In western blotting, separated proteins are transferred to a membrane and probed.
The target in data set [18] is Receptor tyrosine-protein kinase erbB-2 (Homo sapiens, UniProt P04626). As to the kind of experiment: Inhibition of HER2.
Data set [19] deals with Mitogen-activated protein kinase 1 (Homo sapiens, UniProt P28482). As to the kind of experiment: Inhibition of ERK2.
Another data set deals with Insulin receptor (Homo sapiens, UniProt P06213). As to the kind of experiment: Inhibition of Ins1R.
For another data set, the target named is Aurora kinase A (Homo sapiens, UniProt O14965). As to the kind of experiment: Inhibition of Aurora A.
Data set [20] concerns the target MAP kinase-activated protein kinase 2 (Homo sapiens, UniProt P49137).
The next data set has as its target MAP kinase p38 (Homo sapiens, UniProt O15264+Q15759+Q16539+P53778). Nature of the data set: Inhibition of human p38. It is filed as protein assay.
Data set [21] has as its target Insulin-like growth factor 1 receptor (Homo sapiens, UniProt P08069). As to the kind of experiment: Inhibition of IGF1R.
Data set [22] has as its target MAP kinase-activated protein kinase 5 (Homo sapiens, UniProt Q8IW41). Nature of the data set: Inhibition of MK5.
For data set [23], the target named is Tyrosine-protein kinase SYK (Homo sapiens, UniProt P43405).

The structures appear in SMILES notation. In brackets after ≈: the same amount, converted by molar mass.

Sequence of Tyrosine-protein kinase BTK (Q06187 whole entry): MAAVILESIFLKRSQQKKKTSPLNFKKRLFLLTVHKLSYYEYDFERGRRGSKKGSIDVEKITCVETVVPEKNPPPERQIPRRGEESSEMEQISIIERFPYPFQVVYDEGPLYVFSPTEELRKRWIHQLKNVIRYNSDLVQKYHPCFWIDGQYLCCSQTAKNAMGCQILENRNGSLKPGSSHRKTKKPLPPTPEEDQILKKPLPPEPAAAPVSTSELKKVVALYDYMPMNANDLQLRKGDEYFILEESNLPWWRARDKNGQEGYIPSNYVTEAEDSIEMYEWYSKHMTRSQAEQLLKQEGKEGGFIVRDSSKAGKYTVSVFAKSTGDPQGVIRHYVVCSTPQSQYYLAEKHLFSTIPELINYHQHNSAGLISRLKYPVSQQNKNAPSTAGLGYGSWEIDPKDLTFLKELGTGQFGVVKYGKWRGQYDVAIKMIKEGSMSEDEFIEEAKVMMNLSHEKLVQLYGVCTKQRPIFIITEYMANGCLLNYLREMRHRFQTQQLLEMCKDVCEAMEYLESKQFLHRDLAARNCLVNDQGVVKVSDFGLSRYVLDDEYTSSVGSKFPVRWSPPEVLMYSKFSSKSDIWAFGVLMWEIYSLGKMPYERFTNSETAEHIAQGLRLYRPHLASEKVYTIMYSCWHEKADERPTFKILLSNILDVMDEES
Sequence of Fibroblast growth factor receptor 4 (P22455 whole entry): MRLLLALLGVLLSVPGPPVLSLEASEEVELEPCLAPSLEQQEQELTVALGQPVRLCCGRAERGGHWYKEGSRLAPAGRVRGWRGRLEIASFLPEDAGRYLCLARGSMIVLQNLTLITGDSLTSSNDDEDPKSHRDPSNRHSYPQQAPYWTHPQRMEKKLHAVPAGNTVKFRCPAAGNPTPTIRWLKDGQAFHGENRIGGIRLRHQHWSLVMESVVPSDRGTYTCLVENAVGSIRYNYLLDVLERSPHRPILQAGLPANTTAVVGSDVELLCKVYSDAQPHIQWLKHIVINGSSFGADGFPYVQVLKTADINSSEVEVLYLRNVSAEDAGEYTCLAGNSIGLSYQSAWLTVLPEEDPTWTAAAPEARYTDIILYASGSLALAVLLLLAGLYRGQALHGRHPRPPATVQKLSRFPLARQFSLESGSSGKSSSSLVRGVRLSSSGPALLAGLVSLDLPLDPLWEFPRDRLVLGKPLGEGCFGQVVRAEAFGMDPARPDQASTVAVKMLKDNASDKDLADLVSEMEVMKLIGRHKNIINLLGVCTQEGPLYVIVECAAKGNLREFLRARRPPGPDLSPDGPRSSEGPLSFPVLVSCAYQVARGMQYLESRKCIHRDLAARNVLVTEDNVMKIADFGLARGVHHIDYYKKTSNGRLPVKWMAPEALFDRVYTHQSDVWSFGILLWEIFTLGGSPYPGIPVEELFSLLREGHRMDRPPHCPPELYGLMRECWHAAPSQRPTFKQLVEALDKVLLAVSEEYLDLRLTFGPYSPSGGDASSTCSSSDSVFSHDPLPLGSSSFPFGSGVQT
Sequence of Insulin-like growth factor 1 receptor (P08069 31-736 limits assumed): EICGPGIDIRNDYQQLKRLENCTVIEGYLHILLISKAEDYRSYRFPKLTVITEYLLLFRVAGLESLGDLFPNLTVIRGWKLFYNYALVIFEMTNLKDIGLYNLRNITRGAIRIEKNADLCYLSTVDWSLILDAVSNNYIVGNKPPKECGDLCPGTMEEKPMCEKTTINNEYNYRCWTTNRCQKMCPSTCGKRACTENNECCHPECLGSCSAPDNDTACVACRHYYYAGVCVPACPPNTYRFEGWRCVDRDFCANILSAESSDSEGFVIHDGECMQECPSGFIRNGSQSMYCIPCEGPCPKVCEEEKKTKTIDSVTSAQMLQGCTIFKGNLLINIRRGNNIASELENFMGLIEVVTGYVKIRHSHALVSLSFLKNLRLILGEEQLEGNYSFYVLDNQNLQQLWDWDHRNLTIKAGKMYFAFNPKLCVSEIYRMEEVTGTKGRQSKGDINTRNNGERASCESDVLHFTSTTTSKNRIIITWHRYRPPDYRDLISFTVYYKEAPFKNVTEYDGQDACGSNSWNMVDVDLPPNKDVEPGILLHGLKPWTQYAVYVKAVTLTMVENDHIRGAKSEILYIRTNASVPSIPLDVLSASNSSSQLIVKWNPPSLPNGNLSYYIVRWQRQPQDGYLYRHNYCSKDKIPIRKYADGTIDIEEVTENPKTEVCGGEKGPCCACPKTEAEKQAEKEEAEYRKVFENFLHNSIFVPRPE
Sequence of Insulin-like growth factor 1 receptor (P08069 741-1367 limits assumed): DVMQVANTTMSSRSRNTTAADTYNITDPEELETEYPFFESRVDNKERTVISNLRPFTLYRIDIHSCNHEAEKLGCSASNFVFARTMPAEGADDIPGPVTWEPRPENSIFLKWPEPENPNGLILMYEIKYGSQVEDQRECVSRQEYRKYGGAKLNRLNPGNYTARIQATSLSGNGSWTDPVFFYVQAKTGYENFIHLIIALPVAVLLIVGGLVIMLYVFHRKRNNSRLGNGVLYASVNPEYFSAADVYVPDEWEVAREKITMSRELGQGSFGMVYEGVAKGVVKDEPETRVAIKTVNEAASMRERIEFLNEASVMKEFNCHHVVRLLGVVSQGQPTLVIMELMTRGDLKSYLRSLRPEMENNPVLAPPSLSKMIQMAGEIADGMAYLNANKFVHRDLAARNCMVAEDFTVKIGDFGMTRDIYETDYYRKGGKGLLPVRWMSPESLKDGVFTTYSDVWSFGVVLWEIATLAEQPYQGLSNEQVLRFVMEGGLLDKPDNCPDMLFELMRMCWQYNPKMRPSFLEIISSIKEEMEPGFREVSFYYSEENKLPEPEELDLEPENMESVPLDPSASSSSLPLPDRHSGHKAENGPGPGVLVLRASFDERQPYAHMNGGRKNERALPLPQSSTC
Sequence of RAC-alpha serine/threonine-protein kinase (P31749 whole entry): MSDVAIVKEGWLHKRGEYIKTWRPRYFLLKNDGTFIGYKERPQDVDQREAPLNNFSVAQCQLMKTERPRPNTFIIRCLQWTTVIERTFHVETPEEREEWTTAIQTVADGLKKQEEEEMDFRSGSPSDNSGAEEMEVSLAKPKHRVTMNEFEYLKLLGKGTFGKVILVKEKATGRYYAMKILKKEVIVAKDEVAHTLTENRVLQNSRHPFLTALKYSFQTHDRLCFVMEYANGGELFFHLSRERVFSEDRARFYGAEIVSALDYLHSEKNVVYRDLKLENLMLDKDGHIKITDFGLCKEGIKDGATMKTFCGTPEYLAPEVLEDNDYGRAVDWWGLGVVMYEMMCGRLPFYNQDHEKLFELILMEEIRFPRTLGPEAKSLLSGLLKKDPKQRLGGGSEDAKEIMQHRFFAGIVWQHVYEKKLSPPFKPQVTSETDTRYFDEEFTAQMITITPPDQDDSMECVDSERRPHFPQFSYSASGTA
Sequence of Tyrosine-protein kinase JAK3 (P52333 whole entry): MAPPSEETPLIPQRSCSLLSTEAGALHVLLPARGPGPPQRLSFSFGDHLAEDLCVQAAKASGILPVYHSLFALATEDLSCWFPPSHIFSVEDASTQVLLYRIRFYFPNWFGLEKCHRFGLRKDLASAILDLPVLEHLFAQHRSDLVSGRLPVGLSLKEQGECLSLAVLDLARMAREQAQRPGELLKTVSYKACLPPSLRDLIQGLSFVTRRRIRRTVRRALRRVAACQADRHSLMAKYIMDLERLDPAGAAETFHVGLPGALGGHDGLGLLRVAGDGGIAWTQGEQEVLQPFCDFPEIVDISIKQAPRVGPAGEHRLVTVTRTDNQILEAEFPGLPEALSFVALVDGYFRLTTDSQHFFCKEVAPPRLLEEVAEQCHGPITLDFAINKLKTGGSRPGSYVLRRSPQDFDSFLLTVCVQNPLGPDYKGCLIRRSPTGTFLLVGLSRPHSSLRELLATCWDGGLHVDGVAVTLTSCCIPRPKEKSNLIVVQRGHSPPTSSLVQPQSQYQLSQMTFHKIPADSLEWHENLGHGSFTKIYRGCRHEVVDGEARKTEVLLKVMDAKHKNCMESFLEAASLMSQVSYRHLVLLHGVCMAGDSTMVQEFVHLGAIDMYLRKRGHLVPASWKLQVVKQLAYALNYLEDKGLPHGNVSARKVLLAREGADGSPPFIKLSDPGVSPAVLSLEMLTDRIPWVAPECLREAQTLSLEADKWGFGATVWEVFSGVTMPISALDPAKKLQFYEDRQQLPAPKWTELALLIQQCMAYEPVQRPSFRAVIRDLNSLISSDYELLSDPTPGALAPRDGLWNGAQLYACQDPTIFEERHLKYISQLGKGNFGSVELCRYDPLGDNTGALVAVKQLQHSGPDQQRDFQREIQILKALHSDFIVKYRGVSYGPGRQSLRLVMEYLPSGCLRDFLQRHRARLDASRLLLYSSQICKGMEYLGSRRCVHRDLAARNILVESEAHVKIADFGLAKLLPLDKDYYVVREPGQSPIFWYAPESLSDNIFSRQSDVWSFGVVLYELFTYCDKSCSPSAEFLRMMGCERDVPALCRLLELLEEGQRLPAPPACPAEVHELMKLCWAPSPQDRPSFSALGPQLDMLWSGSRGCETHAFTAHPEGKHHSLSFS
Sequence of Heat shock protein beta-1 (Homo sapiens) (P04792 whole entry): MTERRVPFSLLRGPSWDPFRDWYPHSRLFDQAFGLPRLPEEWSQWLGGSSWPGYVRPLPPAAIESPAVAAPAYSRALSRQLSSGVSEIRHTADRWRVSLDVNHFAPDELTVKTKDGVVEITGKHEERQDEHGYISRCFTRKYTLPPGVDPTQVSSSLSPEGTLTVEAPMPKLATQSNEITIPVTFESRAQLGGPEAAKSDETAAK
Sequence of Aurora kinase A (O14965 whole entry): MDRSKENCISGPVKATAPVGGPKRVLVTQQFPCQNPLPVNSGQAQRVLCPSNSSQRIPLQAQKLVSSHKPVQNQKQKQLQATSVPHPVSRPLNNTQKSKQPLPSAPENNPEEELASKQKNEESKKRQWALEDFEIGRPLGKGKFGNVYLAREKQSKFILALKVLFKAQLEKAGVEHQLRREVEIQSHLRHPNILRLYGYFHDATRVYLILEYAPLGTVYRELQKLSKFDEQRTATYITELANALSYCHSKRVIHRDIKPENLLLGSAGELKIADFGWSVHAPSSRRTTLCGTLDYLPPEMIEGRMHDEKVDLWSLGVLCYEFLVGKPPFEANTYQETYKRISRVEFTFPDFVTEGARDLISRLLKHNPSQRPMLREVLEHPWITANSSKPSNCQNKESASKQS

The term IC50 denotes the point on the concentration scale where inhibition reaches its midpoint. In the case of `Nc1nc2[nH]c(-c3ccnc(/C=C/c4ccccc4)c3)cc2c(=O)[nH]1`, inhibition in the data set with PBMC was half-maximal at 1500 nM (IC50).
By thermodynamic solubility is commonly meant the concentration in solution at equilibrium with solid. Regarding `CN(C)CCOc1ccc(/C=C/c2cc(-c3cc4c(=O)[nH]cnc4[nH]3)ccn2)cc1`, the IC50 is 3600 nM in data set [1]; over 10000 nM in data set [2]; over 10000 nM in [3]; 3300 nM in data set [4]; 140 nM in [5]; 190 nM in [6]. For the same compound, the IC50 is 6800 nM in data set [7]; 240 nM in data set [8]; 530 nM in data set [9]; 960 nM in [10]; over 10000 nM in data set [11]; 1400 nM against Ephrin type-B receptor 4. The half-maximal inhibitory concentration (IC50) in data set [12] stood at 8200 nM; in [13], 6100 nM; in [14], 1000 nM; against Ephrin type-A receptor 4 it was 5600 nM; in data set [16], 4100 nM; in data set [18] it was 9500 nM. The concentration for half-maximal inhibition (IC50) with PBMC was 40 nM; in [19], 2600 nM; against Insulin receptor, 7800 nM; against Aurora kinase A, 280 nM; in data set [20], 82 nM; against MAP kinase p38, over 10000 nM. Further, the concentration for half-maximal inhibition (IC50) in [21] was 6400 nM; in data set [22], 28 nM. Also, the thermodynamic solubility in data set [15] turned out to be 410 µg/mL (≈ 1020 µM). Besides, the Activity result in data set [17] is “Dose-dependent effect”.
Take `O=c1[nH]cnc2[nH]c(-c3ccnc(/C=C/c4ccc(CN5CCOCC5)cc4)c3)cc12`: the IC50 was 1300 nM in data set [1]; over 10000 nM in data set [2]; over 10000 nM in data set [3]; 85 nM in data set [5]; 100 nM in data set [6]; over 10000 nM in data set [7]. The IC50 in data set [8] was 950 nM; in data set [9] it was 300 nM; in data set [10], 4000 nM; in data set [11], 6700 nM; at Ephrin type-B receptor 4 it was 1700 nM; in data set [12], over 10000 nM. Besides, the 50% inhibitory concentration (IC50) in [13] was 5200 nM; in [14] it was 310 nM; on Ephrin type-A receptor 4, over 10000 nM; in data set [16], over 10000 nM; in data set [18] it was over 10000 nM; in the data set on PBMC, 110 nM. Also, the IC50 in data set [19] is 1100 nM; against Insulin receptor it was over 10000 nM; against Aurora kinase A, 93 nM; in [20], 51 nM; in [23], 6200 nM; against MAP kinase p38, over 10000 nM. Besides, the IC50 is over 10000 nM in data set [21] and 24 nM in [22]. For the same compound, the thermodynamic solubility in [15] turned out to be 41 µg/mL (≈ 99.2 µM). Also, the Activity result in data set [17] was “Dose-dependent effect”.
On to `O=c1[nH]cnc2[nH]c(-c3ccnc(/C=C/c4ccccc4)c3)cc12`, for which, in the data set on PBMC, inhibition was half-maximal at 2300 nM (IC50).
The same measure, in the same setting: next, `O=C(Nc1cc(-c2cc3c(=O)[nH]cnc3[nH]2)ccn1)c1ccc(C2CCCC2)cc1`: 10000 nM; `Cc1nc2[nH]c(-c3ccnc(/C=C/c4ccccc4)c3)cc2c(=O)[nH]1`: 1100 nM.
With `O=C(c1ccc(/C=C/c2cc(-c3cc4c(=O)[nH]cnc4[nH]3)ccn2)cc1)N1CCOCC1`, in data set [15], the solubility (thermodynamic) worked out at 9 µg/mL (≈ 21.1 µM). Besides, it took 150 nM to reach half-maximal inhibition with PBMC (IC50).
In the data set on PBMC, `COc1ccc(-c2cc(-c3cc4c(=O)[nH]cnc4[nH]3)ccn2)cc1` gave an IC50 of over 10000 nM.
With `O=c1[nH]cnc2[nH]c(-c3ccnc(/C=C/c4ccc(F)cc4)c3)cc12`, the thermodynamic solubility in data set [15] came out at 3 µg/mL (≈ 9.03 µM). For the same compound, the IC50 with PBMC came out at 350 nM.
In the case of `O=c1[nH]c(Cc2ccccc2)nc2[nH]c(-c3ccnc(/C=C/c4ccccc4)c3)cc12`, the half-inhibitory concentration (IC50) in the data set on PBMC was over 10000 nM.
In the data set with PBMC, `CCN(CC)Cc1ccc(/C=C/c2cc(-c3cc4c(=O)[nH]cnc4[nH]3)ccn2)cc1` returned an IC50 of 380 nM.
